In the Deep4Chem optical property database:

Assay: solvent given as SMILES

`CNc1ccc(/C=C/C#N)cc1` showed an emission maximum (in C1CCCCC1) of 368 nm, an emission maximum (in C1CCOC1) of 419 nm and an emission maximum (in C1COCCO1) of 399 nm. The emission maximum (in CC1CCCCC1) was 391 nm, the emission maximum (in CC#N) was 421 nm and the emission maximum (in CC(C)O) was 408 nm. The emission maximum (in CCO) was 414 nm, the emission maximum (in CO) was 423 nm and the emission maximum (in ClC(Cl)Cl) was 404 nm. The emission maximum (in O) was 445 nm.
`N#CSC1=CC2=C(c3ccccc3)c3ccc(N4CCOCC4)n3[B-](F)(F)[N+]2=C1N1CCOCC1` gave an emission maximum (in CC#N) of 605 nm, an emission maximum (in CCCCCC) of 599 nm and an emission maximum (in CCOC(C)=O) of 604 nm. The emission maximum (in CO) was 599 nm and the emission maximum (in ClCCl) was 603 nm.
Work on `Cc1ccc(/C2=c3\cc/c(o3)=C(\c3ccc(C)cc3)c3ccc([nH]3)-c3ccc4n3[B-](F)(F)[N+]3=C(C=CC3=C4c3ccco3)c3ccc2[nH]3)cc1` yielded an emission maximum (in ClC(Cl)Cl) of 731 nm.
`C(=C\c1c2ccccc2cc2ccccc12)/c1ccc2ccccc2n1` showed an emission maximum (in CC1CCCCC1) of 492 nm and an emission maximum (in CC#N) of 510 nm.
With `CNc1ccc(/C=C/C(=O)OC)cc1` the emission maximum (in O) was 470 nm.
Compound `CCCCC#Cc1cccc2cc(CCCC)c3cc(-c4cc[b-]5c(c4)c(CCCC)cc4cccc(C#CCCCC)[n+]54)cc[b-]3[n+]12` has an emission maximum (in C1CCCCC1) of 598 nm.
Compound `COc1ccc2cc(-c3ccc(C)cc3)c(=O)oc2c1` has an emission maximum (in C1CCOC1) of 424 nm, an emission maximum (in CCCCCC) of 414 nm and an emission maximum (in CCO) of 429 nm. It also gave an emission maximum (in CS(C)=O) of 431 nm.
With `Cc1nc(-c2ccccc2O)n2c1CCCC2` the emission maximum (in ClCCl) was 452 nm.
Compound `c1ccc2cc3c(cc2c1)-c1cccc2c1c-3cc1ccccc12` has an emission maximum (in CCCCCCC) of 401 nm.
With `Cc1cc(-c2nc(-c3ccccc3)nc(-c3ccccc3)n2)cc(C)c1N1c2ccccc2CCc2ccccc21` the emission maximum (in Cc1ccccc1) was 475.79 nm.
Work on `c1ccc(-c2nc(-c3ccccc3)nc(-c3ccc(-n4c5ccccc5c5c6c(ccc54)C4(c5ccccc5-c5ccccc54)c4ccccc4-6)cc3)n2)cc1` yielded an emission maximum (in C1CCOC1) of 488.19 nm, an emission maximum (in C1COCCO1) of 453.7 nm and an emission maximum (in CN(C)C=O) of 525.23 nm. For the same compound, the emission maximum (in Cc1ccccc1) was 444 nm and the emission maximum (in ClC(Cl)Cl) was 496.99 nm.
Work on `Cc1cc(-c2nc(-c3ccccc3)nc(-c3ccccc3)n2)ccc1N1c2ccccc2[Si](c2ccccc2)(c2ccccc2)c2ccccc21` yielded an emission maximum (in Cc1ccccc1) of 459 nm and an emission maximum (in O=P(c1ccccc1)(c1ccccc1)c1ccccc1Oc1ccccc1P(=O)(c1ccccc1)c1ccccc1) of 460 nm.
In the case of `Cc1ccc2c(c1)C(c1ccccc1)(c1ccccc1)c1cc(C)ccc1N2c1ccc2c(c1)N(c1ccccc1)c1ccccc1B2c1c(C(C)C)cc(C(C)C)cc1C(C)C`, the emission maximum (in Cc1ccccc1) is reported as 449 nm and the emission maximum (in O=P(c1ccccc1)(c1ccccc1)c1ccc2oc3ccc(P(=O)(c4ccccc4)c4ccccc4)cc3c2c1) is reported as 465 nm.
For `CCC1=C(C)C(=O)n2c1cc1c(C)c(CC(=O)OC)c(C)n1c2=O`, the emission maximum (in CO) was 525 nm, the emission maximum (in CS(C)=O) was 500 nm and the emission maximum (in ClC(Cl)Cl) was 490 nm. The emission maximum (in c1ccccc1) was 465 nm.
`CCCCC(CC)COc1cc(OCC(CC)CCCC)c2c#cc3ccc4oc5ccc(c#cc6cc(c#cc7ccc8oc9ccc(c#cc1c2)cc9c8c7)c(C(CCCC)OCCC)cc6C(CCCC)OCCC)cc5c4c3` (stereo not drawn) gave an emission maximum (in ClCCl) of 377 nm.
`c1cc2ccc1-c1ccc(cc1)-c1ccc(s1)-c1ccc(cc1)-c1ccc(cc1)-c1ccc(s1)-c1ccc(cc1)-c1ccc(cc1)-c1ccc-2s1` showed an emission maximum (in C1CCOC1) of 523 nm.
With `CCN(CC)c1ccc2cc(-c3ccc(-c4ccc5ccc6c(-c7ccc(-c8cc9ccc(N(CC)CC)cc9oc8=O)cc7)ccc7ccc4c5c76)cc3)c(=O)oc2c1` the emission maximum (in ClC(Cl)Cl) was 475 nm.
`c1ccccc1` showed an emission maximum (in C1CCCCC1) of 287.36 nm.
In the case of `CCCCC1(c2ccc(OC)cc2)Nc2ccccc2N=C1c1ccc(OC)cc1` (stereo not drawn), the emission maximum (in C1CCOC1) is reported as 513 nm, the emission maximum (in CC#N) is reported as 522 nm and the emission maximum (in CCCCCC) is reported as 485 nm. For the same compound, the emission maximum (in CN(C)C=O) was 525 nm, the emission maximum (in Cc1ccccc1) was 501 nm and the emission maximum (in ClC(Cl)Cl) was 507 nm.
Work on `C[Si]1(c2ccccc2)C(c2ccc3c4ccccc4n(-c4ccccc4)c3c2)=C(c2ccccc2)C(c2ccccc2)=C1c1ccc2c3ccccc3n(-c3ccccc3)c2c1` yielded an emission maximum (in C1CCOC1) of 525 nm.
For `Cc1cc2c(o1)c(Br)cc1c(C)cc(=O)oc12`, the emission maximum (in C1CCCCC1) was 408 nm, the emission maximum (in C1COCCO1) was 418 nm and the emission maximum (in CC#N) was 435 nm. The emission maximum (in CCO) was 439 nm and the emission maximum (in OCC(F)(F)F) was 436 nm.
In the case of `CCCC(=O)c1c(OCOC)c(OCOC)c(C(=O)CCC)c2c1OCO2`, the emission maximum (in CC#N) is reported as 503 nm.
Compound `COc1ccc(/C=C/C(F)(F)F)c(N)c1` has an emission maximum (in C1CCOC1) of 410 nm.
Compound `COc1cc(C=O)cc(-c2[nH]c(=O)n3c2-c2ccccc2C3=O)c1O` has an emission maximum (in CC#N) of 473 nm, an emission maximum (in CO) of 490 nm and an emission maximum (in ClCCl) of 467 nm.
Compound `O=Cc1cc(O)c(C=O)cc1O` has an emission maximum (in C1CCOC1) of 468 nm, an emission maximum (in C1COCCO1) of 468 nm and an emission maximum (in CC#N) of 474 nm. It also gave an emission maximum (in CC(C)=O) of 470 nm, an emission maximum (in CCCO) of 491 nm and an emission maximum (in CCO) of 491 nm. It also gave an emission maximum (in CN(C)C=O) of 492 nm, an emission maximum (in CN(C)P(=O)(N(C)C)N(C)C) of 493 nm and an emission maximum (in CNC=O) of 479 nm. For the same compound, the emission maximum (in CO) was 492 nm, the emission maximum (in CS(C)=O) was 495 nm and the emission maximum (in NC=O) was 490 nm.
